These are literature values, as cited in patent publication US20240397939A1, “COMPOSITIONS COMPRISING DIFFERENT DRIFT RETARDING AGENTS” (BAYER CROPSCIENCE LP, priority 2021, published 2024).

The conditions of the data set: known HLB value, estimation by Griffin's method.

On to “Polysorbate 80 (polyoxyethylene sorbitan monooleate) [Tween® 80]”, for which the HLB is 15.
Regarding Sorbitan monooleate [Span® 80], the HLB is listed as 4.3.
